This note sets out measurements from PMC9267128, “New 2-[(4-Amino-6-N-substituted-1,3,5-triazin-2-yl)methylthio]-N-(imidazolidin-2-ylidene)-4-chloro-5-methylbenzenesulfonamide Derivatives, Design, Synthesis and Anticancer Evaluation” (International Journal of Molecular Sciences, 2022).

Experiment [1] relates to HaCaT (human keratinocyte cell line). The experiment can be described thus: MTT cell viability assay, non-cancerous HaCaT. It is filed as cell-based. The following applies: Homo sapiens, HaCaT, 72 h, 72 h of incubation, non-cancerous keratinocytes. On the procedure: (§1) Compounds 20–162 were evaluated in vitro for their effects on the viability of three cancer cell lines: HCT-116 (colon cancer), MCF-7 (breast cancer) and HeLa (cervical cancer), as well as the non-cancerous keratinocyte cell line (HaCaT). […] Analysis was performed using an MTT assay after 72 h of incubation.
(§2) All chemicals, if not stated otherwise, were obtained from Sigma–Aldrich (St. Louis, MO, USA). The HCT-116 cell line was purchased from ATCC (ATCC-No: CCL-247), while the MCF-7, HeLa and HaCaT cell lines were purchased from Cell Lines Services (Eppelheim, Germany). Cells were cultured in Dulbecco’s modified Eagle’s medium (DMEM) supplemented with 10% fetal bovine serum, 2 mM glutamine, 100 units/mL penicillin and 100 µg/mL streptomycin. Cultures were maintained in a humidified atmosphere with 5% carbon dioxide at 37 °C in an incubator (Heraceus, HeraCell).
(§3) Cell viability was examined using the MTT [3-(4,5-dimethylthiazol-2-yl)-2,5-diphenyltetrazolium bromide] assay. Cells were seeded in 96-well plates at a density of 3 × 10^3 cells/well and treated for 72 h with the tested compounds in the concentration range of 1–100 µM. Then, MTT (0.5 mg/mL) was added to the medium and cells were further incubated for 2 h at 37 °C. In the next stage, cells were lysed with DMSO and the absorbance of the formazan solution was measured at 550 nm with a plate reader (1420 multilabel counter, Victor, Jügesheim, Germany). The experiment was performed in triplicate. Values are expressed as the mean ± SD of at least three independent experiments. Cisplatin was used as a positive control.

Experiment [2] has as its system HCT-116 (colon cancer). The experiment can be described thus: MTT cell viability assay, HCT-116. It is filed as cell-based, human. As to conditions: Homo sapiens, HCT-116, 72 h, MTT assay, 72 h of incubation. On the procedure: (§4) Analysis was performed using an MTT assay after 72 h of incubation.
as §2
as §3, with “experiments.” for “experiments. Cisplatin was used as a positive control.”
For orientation: Tetrazolium dyes change colour on reduction, which living cells bring about.

Experiment [3] deals with HeLa (cervical cancer). The experiment is described as follows: MTT cell viability assay, HeLa. It is filed as cell-based, human. The following applies: Homo sapiens, HeLa; MTT assay, 72 h of incubation. On the procedure: as §4, §2
as §3, with “experiments.” for “experiments. Cisplatin was used as a positive control.”

Experiment [4] has as its system MCF-7 (breast cancer). The experiment is described as follows: MTT cell viability assay, MCF-7. It is filed as cell-based, human. The following applies: Homo sapiens, MCF7, 72 h, MTT assay, 72 h of incubation. On the procedure: as §1, §2, §3

A word on the IC50: it is the concentration that gives 50% inhibition. A lower IC50 goes with greater potency in that assay. For the compound `Cc1cc(S(=O)(=O)N=C2NCCN2Cc2ccc(F)cc2)c(SCc2nc(N)nc(N3CCOCC3)n2)cc1Cl` [Compound 82], the IC50 in experiment [1] was determined as 54 ± 2 µM; in experiment [2], 19 ± 0.8 µM; in experiment [3], 30 ± 1 µM; in experiment [4] it was 12 ± 0.1 µM.

`Cc1cc(S(=O)(=O)N=C2NCCN2Cc2ccc(F)cc2)c(SCc2nc(N)nc(N3CCc4ccccc43)n2)cc1Cl` [Compound 83]: the IC50 was found to be 32 ± 1 µM in experiment [1], 10 ± 0.5 µM in experiment [2], 12 ± 3 µM in experiment [3] and 14 ± 1 µM in experiment [4].

As to `Cc1cc(S(=O)(=O)N=C2NCCN2Cc2ccc(F)cc2)c(SCc2nc(N)nc(N3CCCc4ccccc43)n2)cc1Cl` [Compound 84], the IC50 was 27 ± 1 µM in experiment [1], 9 ± 0.5 µM in experiment [2], 15 ± 0.6 µM in experiment [3] and 7 ± 0.1 µM in experiment [4].

For the compound `Cc1cc(S(=O)(=O)N=C2NCCN2Cc2ccc(F)cc2)c(SCc2nc(N)nc(Nc3ccccc3)n2)cc1Cl` [Compound 85], the concentration for half-maximal inhibition (IC50) stood at 38 ± 1 µM in experiment [1], 15 ± 0.5 µM in experiment [2], 21 ± 4 µM in experiment [3] and 23 ± 1 µM in experiment [4].

Regarding `Cc1cc(S(=O)(=O)N=C2NCCN2Cc2ccc(F)cc2)c(SCc2nc(N)nc(Nc3ccc(F)cc3)n2)cc1Cl` [Compound 86], the IC50 was 35 ± 2 µM in experiment [1], 13 ± 0.5 µM in experiment [2], 16 ± 0.2 µM in experiment [3] and 15 ± 0.2 µM in experiment [4].

As for `Cc1cc(S(=O)(=O)N=C2NCCN2Cc2ccc(F)cc2)c(SCc2nc(N)nc(Nc3ccc(C(F)(F)F)cc3)n2)cc1Cl` [Compound 87], the concentration for half-maximal inhibition (IC50) in experiment [1] was 34 ± 1 µM; in experiment [2], 10 ± 0.4 µM; in experiment [3], 15 ± 1 µM; in experiment [4], 7 ± 0.3 µM.

`COc1ccc(Nc2nc(N)nc(CSc3cc(Cl)c(C)cc3S(=O)(=O)N=C3NCCN3Cc3ccc(F)cc3)n2)cc1` [Compound 88]: the IC50 is 43 ± 2 µM in experiment [1], 17 ± 0.5 µM in experiment [2], 25 ± 2 µM in experiment [3] and 31 ± 1 µM in experiment [4].

Turning to `Cc1cc(S(=O)(=O)N=C2NCCN2Cc2ccc(F)cc2)c(SCc2nc(N)nc(N(C)c3ccccc3)n2)cc1Cl` [Compound 89], the IC50 in experiment [1] was 31 ± 1 µM; in experiment [2], 14 ± 0.7 µM; in experiment [3], 17 ± 0.6 µM; in experiment [4], 18 ± 1 µM.

Turning to `Cc1cc(S(=O)(=O)N=C2NCCN2Cc2ccc(F)cc2)c(SCc2nc(N)nc(N(C)c3ccc(Cl)cc3)n2)cc1Cl` [Compound 90], the IC50 is 30 ± 2 µM in experiment [1], 12 ± 0.2 µM in experiment [2], 15 ± 0.6 µM in experiment [3] and 17 ± 1 µM in experiment [4].

`Cc1cc(S(=O)(=O)N=C2NCCN2Cc2ccc(F)cc2)c(SCc2nc(N)nc(N3CCN(C)CC3)n2)cc1Cl` [Compound 91]: the 50% inhibitory concentration (IC50) came to 54 ± 2 µM in experiment [1], 20 ± 1 µM in experiment [2], 34 ± 2 µM in experiment [3] and 13 ± 0.4 µM in experiment [4].

For the compound `Cc1cc(S(=O)(=O)N=C2NCCN2Cc2ccc(F)cc2)c(SCc2nc(N)nc(N3CCN(c4ccccc4)CC3)n2)cc1Cl` [Compound 92], the IC50 was determined as 18 ± 1 µM in experiment [1], 7 ± 0.3 µM in experiment [2], 8 ± 0.5 µM in experiment [3] and 8 ± 0.4 µM in experiment [4].

Consider `Cc1cc(S(=O)(=O)N=C2NCCN2Cc2ccc(F)cc2)c(SCc2nc(N)nc(N3CCN(c4ccc(F)cc4)CC3)n2)cc1Cl` [Compound 93], for which the half-inhibitory concentration (IC50) amounted to 18 ± 1 µM in experiment [1], 7 ± 0.3 µM in experiment [2], 8 ± 0.4 µM in experiment [3] and 7 ± 0.5 µM in experiment [4].

Consider `Cc1cc(S(=O)(=O)N=C2NCCN2Cc2ccc(F)cc2)c(SCc2nc(N)nc(N3CCN(c4ccccc4F)CC3)n2)cc1Cl` [Compound 94], for which the half-inhibitory concentration (IC50) in experiment [1] was 25 ± 1 µM; in experiment [2], 9 ± 0.2 µM; in experiment [3], 12 ± 1 µM; in experiment [4] it was 14 ± 0.5 µM.

For `Cc1cc(S(=O)(=O)N=C2NCCN2Cc2ccc(F)cc2)c(SCc2nc(N)nc(N3CCN(c4ccc(C(F)(F)F)cc4)CC3)n2)cc1Cl` [Compound 95], the 50% inhibitory concentration (IC50) in experiment [1] worked out at 18 ± 1 µM; in experiment [2] it was 7 ± 0.3 µM; in experiment [3], 8 ± 0.4 µM; in experiment [4], 7 ± 0.1 µM.

In the case of `Cc1cc(S(=O)(=O)N=C2NCCN2Cc2ccc(F)cc2)c(SCc2nc(N)nc(N3CCN(c4ccc(Cl)cc4)CC3)n2)cc1Cl` [Compound 96], the IC50 in experiment [1] was 22 ± 1 µM; in experiment [2], 6 ± 0.3 µM; in experiment [3], 9 ± 0.3 µM; in experiment [4], 6 ± 0.2 µM.

In the case of `Cc1cc(S(=O)(=O)N=C2NCCN2Cc2ccc(F)cc2)c(SCc2nc(N)nc(N3CCN(c4cccc(Cl)c4)CC3)n2)cc1Cl` [Compound 97], the IC50 is 24 ± 1 µM in experiment [1], 6 ± 0.2 µM in experiment [2], 9 ± 0.3 µM in experiment [3] and 7 ± 0.4 µM in experiment [4].

Take `Cc1cc(S(=O)(=O)N=C2NCCN2Cc2ccc(F)cc2)c(SCc2nc(N)nc(N3CCN(c4ccc(Cl)c(Cl)c4)CC3)n2)cc1Cl` [Compound 98]: the half-inhibitory concentration (IC50) in experiment [1] is 18 ± 1 µM; in experiment [2], 7 ± 0.1 µM; in experiment [3] it was 8 ± 0.4 µM; in experiment [4] it was 7 ± 0.4 µM.

For `Cc1cc(S(=O)(=O)N=C2NCCN2Cc2ccc(F)cc2)c(SCc2nc(N)nc(N3CCN(c4ccc(F)c(Cl)c4)CC3)n2)cc1Cl` [Compound 99], the 50% inhibitory concentration (IC50) in experiment [1] was determined as 30 ± 1 µM; in experiment [2], 17 ± 1 µM; in experiment [3], 18 ± 0.5 µM; in experiment [4], 17 ± 1 µM.

In the case of `COc1ccc(N2CCN(c3nc(N)nc(CSc4cc(Cl)c(C)cc4S(=O)(=O)N=C4NCCN4Cc4ccc(F)cc4)n3)CC2)cc1` [Compound 100], the 50% inhibitory concentration (IC50) was 18 ± 1 µM in experiment [1], 8 ± 0.2 µM in experiment [2], 8 ± 0.5 µM in experiment [3] and 7 ± 0.1 µM in experiment [4].

As for `Cc1cc(S(=O)(=O)N=C2NCCN2Cc2ccc(F)cc2)c(SCc2nc(N)nc(N3CCN(Cc4ccccc4)CC3)n2)cc1Cl` [Compound 101], the IC50 in experiment [1] was 21 ± 1 µM; in experiment [2], 12 ± 0.5 µM; in experiment [3], 10 ± 0.6 µM; in experiment [4], 11 ± 0.2 µM.

As for `Cc1cc(S(=O)(=O)N=C2NCCN2Cc2ccc(Br)cc2)c(SCc2nc(N)nc(N3CCc4ccccc43)n2)cc1Cl` [Compound 102], the IC50 came out at 33 ± 1 µM in experiment [1], 8 ± 0.4 µM in experiment [2], 17 ± 1 µM in experiment [3] and 7.5 ± 0.4 µM in experiment [4].

Regarding `Cc1cc(S(=O)(=O)N=C2NCCN2Cc2ccc(Br)cc2)c(SCc2nc(N)nc(N3CCCc4ccccc43)n2)cc1Cl` [Compound 103], the 50% inhibitory concentration (IC50) in experiment [1] came to 28 ± 1 µM; in experiment [2], 7 ± 0.1 µM; in experiment [3], 16 ± 0.5 µM; in experiment [4], 6.5 ± 0.3 µM.

`Cc1cc(S(=O)(=O)N=C2NCCN2Cc2ccc(Br)cc2)c(SCc2nc(N)nc(Nc3ccccc3)n2)cc1Cl` [Compound 104]: the IC50 was determined as 44 ± 2 µM in experiment [1], 17 ± 1 µM in experiment [2], 25 ± 1 µM in experiment [3] and 13 ± 0.4 µM in experiment [4].

With `Cc1cc(S(=O)(=O)N=C2NCCN2Cc2ccc(Br)cc2)c(SCc2nc(N)nc(N(C)c3ccc(Cl)cc3)n2)cc1Cl` [Compound 105], the IC50 was determined as 35 ± 2 µM in experiment [1], 13 ± 0.8 µM in experiment [2], 17 ± 0.5 µM in experiment [3] and 10 ± 0.2 µM in experiment [4].

For `Cc1cc(S(=O)(=O)N=C2NCCN2Cc2ccc(Br)cc2)c(SCc2nc(N)nc(N3CCN(c4ccccc4)CC3)n2)cc1Cl` [Compound 106], the IC50 in experiment [1] worked out at 110 ± 4 µM; in experiment [2], 8.5 ± 0.1 µM; in experiment [3], 82 ± 4 µM; in experiment [4] it was 6.5 ± 0.4 µM.

Take `Cc1cc(S(=O)(=O)N=C2NCCN2Cc2ccc(Br)cc2)c(SCc2nc(N)nc(N3CCN(c4ccc(F)cc4)CC3)n2)cc1Cl` [Compound 107]: the 50% inhibitory concentration (IC50) amounted to 76 ± 4 µM in experiment [1], 8.5 ± 0.3 µM in experiment [2], 58 ± 2 µM in experiment [3] and 7 ± 0.2 µM in experiment [4].

In the case of `Cc1cc(S(=O)(=O)N=C2NCCN2Cc2ccc(Br)cc2)c(SCc2nc(N)nc(N3CCN(c4cccc(C(F)(F)F)c4)CC3)n2)cc1Cl` [Compound 108], the half-inhibitory concentration (IC50) came to 24 ± 1 µM in experiment [1], 10.5 ± 0.5 µM in experiment [2], 11 ± 0.5 µM in experiment [3] and 11 ± 0.5 µM in experiment [4].

For the compound `Cc1cc(S(=O)(=O)N=C2NCCN2Cc2ccc(Br)cc2)c(SCc2nc(N)nc(N3CCN(c4ccc(Cl)cc4)CC3)n2)cc1Cl` [Compound 109], the IC50 in experiment [1] came to 55 ± 2 µM; in experiment [2] it was 23 ± 1 µM; in experiment [3], 36 ± 2 µM; in experiment [4], 22 ± 0.5 µM.
